{
  "source": "ChEMBL document CHEMBL1147402",
  "about": "“Synthesis and antitumour activity of pyrene-linked pyrrolo [2,1-c]benzodiazepine hybrids” (Bioorg Med Chem Lett, 2004)",
  "assay_type_in_all_cases": "functional",
  "details_in_all_cases": "Homo sapiens, read-out: LC50 (the source's name)",
  "key": {"[1]": {"system": "SR", "assay": "In vitro cytotoxicity against leukemia SR cell line"}, "[2]": {"system": "DU-145", "assay": "In vitro cytotoxicity against prostate DU-145 cell line"}, "[3]": {"system": "NCI-H226", "assay": "In vitro cytotoxicity against non-small cell lung NCI-H226 cell line"}, "[4]": {"system": "SF-539", "assay": "In vitro cytotoxicity against CNS SF-539 cell line"}, "[5]": {"system": "HCC 2998", "assay": "In vitro cytotoxicity against colon […] cell line"}, "[6]": {"system": "M14", "assay": "In vitro cytotoxicity against melanoma M14 cell line"}, "[7]": {"system": "SNB-19", "assay": "In vitro cytotoxicity against CNS SNB-19 cell line"}, "[8]": {"system": "A498", "assay": "In vitro cytotoxicity against […] cell line"}},
  "data": [
    {"smiles": "COc1cc2c(cc1OCCCC(=O)Nc1cc3cccc4ccc5cccc1c5c43)N=C[C@@H]1CCCN1C2=O", "values": [
      {"measurement": "CC50", "setting": "[1]", "result": 50, "unit": "nM"},
      {"measurement": "CC50", "setting": "[2]", "result": 240, "unit": "nM"},
      {"measurement": "CC50", "setting": "[3]", "result": "< 10", "unit": "nM"},
      {"measurement": "CC50", "setting": "[4]", "result": 180, "unit": "nM"},
      {"measurement": "CC50", "setting": "[5]", "result": 10, "unit": "nM"},
      {"measurement": "CC50", "setting": "[6]", "result": 50, "unit": "nM"},
      {"measurement": "CC50", "setting": "[7]", "result": 420, "unit": "nM"},
      {"measurement": "CC50", "setting": "[8]", "result": 40, "unit": "nM"}
    ]}
  ]
}
